Results on 18 compounds are retold here after ChEMBL document CHEMBL1147590, “Synthesis and antitumor activity of s-tetrazine derivatives” (Bioorg Med Chem Lett, 2004).

The test system of experiment [1] is A549. The experiment in a line: In vitro rate of inhibition of A-549 tumor cell growth at 10E-4 mol/L. It counts as functional, Homo sapiens. Conditions: at 100 µM.
Experiment [2] deals with A549. The experiment in a line: In vitro rate of inhibition of A-549 tumor cell growth at 10E-5 mol/L. Conditions: at 10 µM. It is filed as functional, Homo sapiens.
Experiment [3] concerns A549. The experiment in a line: In vitro rate of inhibition of A-549 tumor cell growth at 10E-7 mol/L. The following applies: at 0.1 µM. It counts as functional, Homo sapiens.
Experiment [4] relates to A549. The experiment in a line: In vitro rate of inhibition of A-549 tumor cell growth at 10E-8 mol/L. It is filed as functional, Homo sapiens. Conditions: at 0.01 µM.
The subject of experiment [5] is P388. The experiment in a line: In vitro rate of inhibition of P388 tumor cell growth at 10E-5 mol/L. The following applies: at 10 µM. It is filed as functional, Mus musculus.
The test system of experiment [6] is P388. Briefly: In vitro rate of inhibition of P388 tumor cell growth at 10E-6 mol/L. It counts as functional, Mus musculus. Conditions: at 1 µM.
Experiment [7] concerns P388. Briefly: In vitro rate of inhibition of P388 tumor cell growth at 10E-7 mol/L. It counts as functional, Mus musculus. Conditions: at 0.1 µM.
Experiment [8] has as its system P388. The experiment in a line: In vitro rate of inhibition of P388 tumor cell growth at 10E-8 mol/L. It is filed as functional, Mus musculus. Conditions: at 0.01 µM.
The subject of experiment [9] is A549. Briefly: In vitro rate of inhibition of A-549 tumor cell growth at 10E-6 mol/L. It counts as functional, Homo sapiens. Conditions: at 1 µM.
Experiment [10] has as its system P388. Briefly: In vitro rate of inhibition of P388 tumor cell growth at 10E-4 mol/L. It is filed as functional, Mus musculus. Conditions: at 100 µM.

Regarding `C1=CN(c2nnc(N3C=CN=CC3)nn2)CC=N1`, the Rate of inhibition in experiment [1] is reported as 60.6%; in experiment [2] it was 3.9%; in [3], 0%; in [4], 0%; in experiment [5], 0%; in experiment [6], 0%. The Rate of inhibition in experiment [7] is recorded as 0%; in [8], 0%; in [9], 0%; in experiment [10] it was 69.9%.
Take `CCOC(=O)c1ccc(NC(=O)N2N=C(C)N(C(=O)Nc3ccc(C(=O)OCC)cc3)N=C2C)cc1`: the Rate of inhibition in experiment [1] is 27.3%; in experiment [2], 28.8%; in experiment [3], 0%; in experiment [4], 0%; in experiment [5], 25.4%; in experiment [6], 1.6%. Moreover, the Rate of inhibition in [7] worked out at 0%; in experiment [8] it was 0%; in [9] it was 0%; in experiment [10] it was 63.5%.
Regarding `Cc1ccc(-c2nnc(-c3ccc(C)cc3)nn2)cc1`, the Rate of inhibition in experiment [1] was 90.3%; in experiment [2] it was 17%; in experiment [3] it was 0%; in [4], 0%; in experiment [5], 8.3%; in experiment [6], 4.4%. For the same compound, the Rate of inhibition amounted to 2.4% in experiment [7], 4.5% in experiment [8], 0% in experiment [9] and 56.4% in experiment [10].
With `COC(=O)N1N=C(C)N=NC1C` (stereo not given), the Rate of inhibition in experiment [1] is 75.9%; in experiment [2], 19.6%; in experiment [3], 0%; in experiment [4], 0%; in [5], 7.8%; in experiment [6], 0%. Moreover, the Rate of inhibition in experiment [7] is 11.3%; in [8], 5.7%; in [9], 0%; in experiment [10], 60.5%.
Regarding `CC1=NN(C(=O)Nc2cccc3ccccc23)C(C)=NN1C(=O)Nc1cccc2ccccc12`, the Rate of inhibition in [1] is on record as 56.6%; in [2] it was 16.9%; in experiment [3] it was 10%; in experiment [4], 4.4%; in [5] it was 6.3%; in experiment [6], 0%. Further, the Rate of inhibition came out at 0% in experiment [7], 0% in experiment [8], 9.1% in [9] and 60.5% in [10].
Take `CC(=O)N1NC(C)N(C(C)=O)NC1C` (stereo not given): the Rate of inhibition in experiment [1] was 68.5%; in experiment [2], 6%; in [3] it was 7.4%; in [4] it was 3.2%; in experiment [5] it was 0.1%; in [6], 4.3%. The Rate of inhibition in experiment [7] was 0%; in experiment [8], 0%; in experiment [9], 3.6%; in [10], 14.5%.
Turning to `Clc1ccc(-c2nnc(-c3ccc(Cl)cc3)nn2)cc1`, the Rate of inhibition in experiment [1] stood at 0%; in experiment [2] it was 0%; in experiment [3] it was 0%; in experiment [4], 0%; in experiment [5], 35.1%; in [6], 29%. Also, the Rate of inhibition in experiment [7] amounted to 19.4%; in experiment [8], 16.1%; in [9], 0%; in experiment [10] it was 52.3%.
On to `CCCC1=NN(C(=O)Nc2ccccc2)C(CCC)=NN1C(=O)Nc1ccccc1`, for which the Rate of inhibition in experiment [1] worked out at 56.6%; in experiment [2], 78.3%; in experiment [3], 6.1%; in experiment [4], 2.5%; in experiment [5], 61.5%; in experiment [6] it was 22.8%. Moreover, the Rate of inhibition is 4.4% in [7], 4.1% in experiment [8], 48.3% in [9] and 85.4% in experiment [10].
As for `Clc1ccc(Cc2nnc(Cc3ccc(Cl)cc3)nn2)cc1`, the Rate of inhibition in experiment [1] is 65.8%; in experiment [2], 57.1%; in [3] it was 1.1%; in experiment [4], 8.7%; in experiment [5], 29.1%; in [6], 9.3%. The Rate of inhibition in experiment [7] was 8.9%; in experiment [8] it was 0%; in experiment [9], 13.1%; in [10], 58.4%.
Turning to `CC1=NN(C(=O)Nc2ccccc2Cl)C(C)=NN1C(=O)Nc1ccccc1Cl`, the Rate of inhibition in experiment [1] is listed as 28.8%; in [2], 0%; in experiment [3], 0%; in [4] it was 0%; in experiment [5], 41.3%; in experiment [6], 1.6%. For the same compound, the Rate of inhibition in [7] is reported as 0%; in [8], 0%; in experiment [9] it was 0%; in experiment [10], 90.5%.
Regarding `CCCOC(=O)N1N=C(C)N=NC1C` (stereo not given), the Rate of inhibition is 16.7% in [1]; 11% in [2]; 0% in experiment [3]; 0% in experiment [4]; 13.5% in experiment [5]; 9% in experiment [6]. The Rate of inhibition in [7] was found to be 8.7%; in [8] it was 5.2%; in experiment [9] it was 0%; in [10], 34.8%.
As for `COc1cc(NC(=O)N2N=C(C)N(C(=O)Nc3cc(OC)cc(OC)c3)N=C2C)cc(OC)c1`, the Rate of inhibition in experiment [1] was determined as 87.5%; in experiment [2], 79.3%; in experiment [3], 75%; in experiment [4], 26.1%; in [5] it was 88.8%; in [6], 88.9%. Besides, the Rate of inhibition in experiment [7] is recorded as 90.7%; in [8], 73.1%; in [9], 77.3%; in experiment [10], 94.4%.
With `COc1ccccc1NC(=O)N1N=C(C)N(C(=O)Nc2ccccc2OC)N=C1C`, the Rate of inhibition in [1] is 80%; in experiment [2] it was 0%; in [3], 0%; in experiment [4] it was 0%; in [5] it was 17.2%; in experiment [6] it was 1.6%. In addition, the Rate of inhibition in [7] is listed as 0%; in experiment [8], 0%; in [9], 0%; in experiment [10], 59.4%.
Turning to `CC1=NN(C(=O)NC2CCCCC2)C(C)=NN1C(=O)NC1CCCCC1`, the Rate of inhibition in [1] is 58.9%; in [2], 3.5%; in [3] it was 0%; in experiment [4], 0%; in experiment [5] it was 0%; in experiment [6], 0%. The Rate of inhibition in experiment [7] is reported as 0%; in experiment [8], 0%; in [9] it was 0%; in experiment [10] it was 72.6%.
`FC(F)(F)c1ccc(-c2nnc(-c3ccc(C(F)(F)F)cc3)nn2)cc1`: the Rate of inhibition was found to be 40.2% in experiment [1]; 2.5% in experiment [2]; 0% in experiment [3]; 0% in experiment [4]; 44.4% in [5]; 33% in experiment [6]. The Rate of inhibition in experiment [7] is listed as 19.5%; in experiment [8], 9.7%; in experiment [9] it was 0%; in [10], 51.5%.
On to `CC1=NN(C(=O)Nc2cccc(Cl)c2)C(C)=NN1C(=O)Nc1cccc(Cl)c1`, for which the Rate of inhibition is on record as 21.2% in experiment [1]; 7.6% in experiment [2]; 0% in [3]; 0% in experiment [4]; 29.7% in [5]; 6.3% in experiment [6]. Besides, the Rate of inhibition worked out at 0% in experiment [7], 0% in [8], 0% in experiment [9] and 85.9% in [10].
As for `CCCOC(=O)N1C(c2ccccc2)=NN=C(c2ccccc2)N1C(=O)OCCC`, the Rate of inhibition in experiment [1] stood at 23.4%; in experiment [2], 29.8%; in experiment [3] it was 0%; in experiment [4], 0%; in experiment [5] it was 54.8%; in [6], 4.5%. For the same compound, the Rate of inhibition in [7] was 4.3%; in [8], 2.5%; in experiment [9], 0.5%; in experiment [10], 80.9%.
With `Clc1ccccc1-c1nnc(-c2ccccc2Cl)nn1` [CLOFENTEZINE], the Rate of inhibition in [1] came to 0%; in experiment [2], 0%; in experiment [3], 0%; in [4], 0%; in [5], 2.8%; in experiment [6], 5.6%. Moreover, the Rate of inhibition amounted to 14.6% in experiment [7], 12.6% in experiment [8], 0% in experiment [9] and 8.2% in [10].
